≈ marks a conversion by molar mass, not a printed value.
Assays:
[1] = test system: S. aureus ATCC13709; assay: In vitro antibacterial activity (MIC assay), broth microdilution; assay type: cell-based; conditions: Staphylococcus aureus, ATCC13709; read-out: S. aureus ATCC13709 MIC
Protocol: (§1) Minimal inhibitory concentration (MIC) has been an indicator of in vitro antibacterial activity widely used in the art. The in vitro antibacterial activity of the compounds was determined by the broth microdilution method described by the National Committee for Clinical Laboratory Standards (NCCLS) in the NCCLS Document M7-A5, Vol. 20, No. 2, “Methods for Dilution Antimicrobial Susceptibility Test for Bacteria that Grow Aerobically—Fifth Edition”, which is incorporated herein by reference.
(§2) In this method, an aliquot of test compound from an 11-point series of 2-fold serial dilutions of compounds in 100% DMSO was added to wells in microdilution plates. The test organisms were prepared by adjusting the turbidity of actively growing broth cultures so that the final concentration of test organism after addition to wells with or without compounds was approximately 5×10^5 CFU/mL.
(§3) Following inoculation of the microdilution plates, the plates were incubated at 35° C. for 16-24 h and then scored for bacterial growth. […] The amount of growth in the wells containing the test compound was compared with the amount of growth in the growth-control wells (no test compound used) in each plate, and with the amount of growth in the wells containing control compounds (such as ciprofloxacin). Compounds of the present invention were tested against several bacterial strains. The MIC values (in μg/mL) are presented in Table 1 for Gram-negative (E. coli KL-16 (GSC strain 4245); data marked as (*) was obtained with E. coli ATCC25922) and Gram-positive bacteria (S. aureus ATCC13709; S. pneumoniae ATCC49619).

[2] = test system: S. pneumoniae ATCC49619; assay: as above; assay type: cell-based; conditions: Streptococcus pneumoniae, ATCC49619; read-out: S. pneumoniae ATCC49619 MIC
Protocol: as §1, §2, §3

[3] = test system: E. coli KL-16 (GSC strain 4245); assay: as above; assay type: cell-based; conditions: Escherichia coli
Protocol: as §1, §2, §3

[4] = molecular target: T1, E. coli DNA gyrase (Escherichia coli, UniProt P0AES4+P0AES6); assay: DNA gyrase inhibition assay (supercoiling); assay type: biochemical; conditions: E. coli DNA gyrase supercoiling, visual inspection of gels; read-out: DNA Gyrase IC50 (converted)
T1 construct: purchased John Innes Enterprises Ltd. (John Innes Centre, UK)
T1 sequence (P0AES4 whole entry, one chain of several): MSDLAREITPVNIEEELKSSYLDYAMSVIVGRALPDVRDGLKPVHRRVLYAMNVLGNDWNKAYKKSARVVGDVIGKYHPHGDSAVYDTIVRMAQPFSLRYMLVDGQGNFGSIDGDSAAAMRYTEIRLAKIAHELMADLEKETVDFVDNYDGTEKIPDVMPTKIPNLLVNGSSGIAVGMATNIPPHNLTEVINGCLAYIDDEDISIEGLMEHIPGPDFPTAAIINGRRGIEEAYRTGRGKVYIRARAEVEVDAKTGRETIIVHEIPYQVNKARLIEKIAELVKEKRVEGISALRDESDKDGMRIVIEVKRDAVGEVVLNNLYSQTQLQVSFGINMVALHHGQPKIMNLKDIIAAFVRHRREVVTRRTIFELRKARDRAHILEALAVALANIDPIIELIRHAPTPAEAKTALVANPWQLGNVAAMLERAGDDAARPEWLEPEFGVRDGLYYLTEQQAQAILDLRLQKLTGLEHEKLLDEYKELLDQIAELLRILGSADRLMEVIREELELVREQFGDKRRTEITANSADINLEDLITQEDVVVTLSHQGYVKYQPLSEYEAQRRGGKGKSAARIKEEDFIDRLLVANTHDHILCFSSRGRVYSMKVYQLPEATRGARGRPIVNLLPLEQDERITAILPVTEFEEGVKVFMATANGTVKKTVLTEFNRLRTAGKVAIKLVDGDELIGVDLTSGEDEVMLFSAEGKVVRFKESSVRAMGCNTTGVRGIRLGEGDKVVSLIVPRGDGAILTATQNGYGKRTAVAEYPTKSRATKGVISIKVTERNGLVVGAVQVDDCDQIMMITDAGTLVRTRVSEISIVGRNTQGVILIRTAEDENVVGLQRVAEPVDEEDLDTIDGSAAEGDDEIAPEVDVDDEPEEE
Protocol: Inhibition of the supercoiling activity of E. coli DNA gyrase was determined using enzymes, buffers and substrates received from John Innes Enterprises Ltd. (John Innes Centre, UK). The reactions were performed according to the manufacturer's directions, with the following modifications.
DNA supercoiling reactions were carried out in a total reaction volume of 20 μL containing 250 ng of relaxed pBR322, 35 mM Tris-HCl (pH 7.5), 24 mM KCl, 4 mM MgCl2, 2 mM dithiothreitol, 1.8 mM spermidine, 1 mM ATP, 6.5% glycerol and 100 μg/mL albumin. Compounds diluted in 10% DMSO were added to the reaction mixture to reach a final concentration of 0.5% DMSO. Enzyme was diluted to […] in a solution of 50 mM Tris-HCl (pH 7.5), 100 mM KCl, 2 mM dithiothreitol, 1 mM EDTA, and 50% glycerol. Diluted enzyme (0.2 unit) was added to each reaction.
The reactions were incubated at 37° C. for 30 min. The reactions were then cooled to 0° C., followed by addition of 3 μL of 40% glycerol, 100 mM Tris-HCl (pH 7.5), 50 mM EDTA, 0.5% SDS and 0.1% bromophenol blue. Samples were separated on 1.0% agarose gels. Gels were stained with Ethidium bromide and photographed with a Stratagene Eagle Eye II.

Structure (SMILES)	MIC [1] [µg/mL]	MIC [2] [µg/mL]	MIC [3] [µg/mL]	IC50 [4] [µM]
COc1ccc2nccc(-n3cc4c(n3)CCC(NC(=O)/C=C/c3cc(F)cc(F)c3)C4)c2n1 (stereo not drawn) [Example 11, 3-(3,5-Difluoro-phenyl)-N-[2-(6-methoxy-[1,5]naphthyridin-4-yl)-4,5,6,7-tetrahydro-2H-indazol-5-yl]-acrylamide]	< 0.125	16 (≈ 34.7 µM)	> 128	4.33
COc1ccc2nccc(-n3cc4c(n3)CCC(NC(=O)/C=C/c3cccc(Cl)c3)C4)c2n1 (stereo not drawn) [Example 12, 3-(3-Chloro-phenyl)-N-[2-(6-methoxy-[1,5]naphthyridin-4-yl)-4,5,6,7-tetrahydro-2H-indazol-5-yl]-acrylamide]	0.25 (≈ 0.544 µM)	8 (≈ 17.4 µM)	> 128	4.35
COc1ccc2nccc(-n3cc4c(n3)CCC(NC(=O)/C=C/c3ccc(F)cc3)C4)c2n1 (stereo not drawn) [Example 13, 3-(4-Fluoro-phenyl)-N-[2-(6-methoxy-[1,5]naphthyridin-4-yl)-4,5,6,7-tetrahydro-2H-indazol-5-yl]-acrylamide]	0.5 (≈ 1.13 µM)	8 (≈ 18 µM)	> 128	> 36.1
COc1ccc2nccc(-n3cc4c(n3)CCC(NC(=O)/C=C/c3cccc([N+](=O)[O-])c3)C4)c2n1 (stereo not drawn) [Example 14, N-[2-(6-Methoxy-[1,5]naphthyridin-4-yl)-4,5,6,7-tetrahydro-2H-indazol-5-yl]-3-(3-nitro-phenyl)-acrylamide]	1 (≈ 2.13 µM)	16 (≈ 34 µM)	> 128	2.13
COc1ccc2nccc(-n3cc4c(n3)CCN(C(=O)c3ccc5c(c3)NC(=O)CS5)CC4)c2n1 [Example 15, 6-[2-(6-Methoxy-[1,5]naphthyridin-4-yl)-4,5,7,8-tetrahydro-2H-1,2,6-triaza-azulene-6-carbonyl]-4H-benzo[1,4]thiazin-3-one]	1 (≈ 2.06 µM)	16 (≈ 32.9 µM)	> 128	> 65.8
COc1ccc2nccc(-n3ncc4c3CCC(NC(=O)c3cc5c(cc3F)SCC(=O)N5)C4)c2c1 (stereo not drawn) [Example 19, 7-Fluoro-3-oxo-3,4-dihydro-2H-benzo[1,4]thiazine-6-carboxylic acid [1-(6-methoxy-quinolin-4-yl)-4,5,6,7-tetrahydro-1H-indazol-5-yl]-amide]	0.5 (≈ 0.993 µM)	8 (≈ 15.9 µM)	> 128	> 63.5
COc1ccc2nccc(-n3cc4c(n3)CCC(NC(=O)c3cc5c(cc3Cl)SCC(=O)N5)C4)c2c1 (stereo not drawn) [Example 20, 7-Chloro-3-oxo-3,4-dihydro-2H-benzo[1,4]thiazine-6-carboxylic acid [2-(6-methoxy-quinolin-4-yl)-4,5,6,7-tetrahydro-2H-indazol-5-yl]-amide]	< 0.125	2 (≈ 3.85 µM)	2 (≈ 3.85 µM)	0.962
COc1ccc2nccc(-n3cc4c(n3)CCC(NC(=O)c3cc5ccccc5[nH]3)C4)c2c1 (stereo not drawn) [Example 21, 1H-Indole-2-carboxylic acid [2-(6-methoxy-quinolin-4-yl)-4,5,6,7-tetrahydro-2H-indazol-5-yl]-amide]	1 (≈ 2.29 µM)	8 (≈ 18.3 µM)	> 128	> 36.6
COc1ccc2nccc(-n3cc4c(n3)CCC(NC(=O)c3cc5c(F)cc(F)cc5[nH]3)C4)c2c1 (stereo not drawn) [Example 22, 4,6-Difluoro-1H-indole-2-carboxylic acid [2-(6-methoxy-quinolin-4-yl)-4,5,6,7-tetrahydro-2H-indazol-5-yl]-amide]	0.5 (≈ 1.06 µM)	8 (≈ 16.9 µM)	> 128	1.06
COc1ccc2nccc(-n3cc4c(n3)CCC(NC(=O)c3cc5ccccc5o3)C4)c2c1 (stereo not drawn) [Example 25, Benzofuran-2-carboxylic acid [2-(6-methoxy-quinolin-4-yl)-4,5,6,7-tetrahydro-2H-indazol-5-yl]-amide]	1 (≈ 2.28 µM)	8 (≈ 18.2 µM)	> 128	> 36.5
COc1ccc2nccc(-n3cc4c(n3)CCC(NC(=O)C(=O)c3cc5ccccc5[nH]3)C4)c2c1 (stereo not drawn) [Example 26, 2-(1H-Indol-2-yl)-N-[2-(6-methoxy-quinolin-4-yl)-4,5,6,7-tetrahydro-2H-indazol-5-yl]-2-oxo-acetamide]	0.25 (≈ 0.537 µM)	2 (≈ 4.3 µM)	> 128	> 34.4
COc1ccc2nccc(-n3cc4c(n3)CC(NC(=O)c3cc5c(cc3F)SCC(=O)N5)CC4)c2c1 (stereo not drawn) [Example 28, 7-Fluoro-3-oxo-3,4-dihydro-2H-benzo[1,4]thiazine-6-carboxylic acid [2-(6-methoxy-quinolin-4-yl)-4,5,6,7-tetrahydro-2H-indazol-6-yl]-amide]	0.25 (≈ 0.496 µM)	4 (≈ 7.94 µM)	16 (≈ 31.8 µM)	3.97
O=C1CSc2cc(F)c(C(=O)NC3CCc4nn(-c5cccc6ccccc56)cc4C3)cc2N1 (stereo not drawn) [Example 33, 7-Fluoro-3-oxo-3,4-dihydro-2H-benzo[1,4]thiazine-6-carboxylic acid (2-naphthalen-1-yl-4,5,6,7-tetrahydro-2H-indazol-5-yl)-amide]	1 (≈ 2.12 µM)	8 (≈ 16.9 µM)	> 128	4.23
COc1ccc2nccc(-n3cc4c(n3)CCC(NCc3ccc(N(C)C)c(C#N)c3F)C4)c2n1 (stereo not drawn) [Example 35, 6-Dimethylamino-2-fluoro-3-{[2-(6-methoxy-[1,5]naphthyridin-4-yl)-4,5,6,7-tetrahydro-2H-indazol-5-ylamino]-methyl}-benzonitrile]	< 0.125	1 (≈ 2.12 µM)	> 128	4.24
COc1ccc2nccc(-n3cc4c(n3)CCC(NCc3cc5c(cc3F)OCCO5)C4)c2n1 (stereo not drawn) [Example 43, (7-Fluoro-2,3-dihydro-benzo[1,4]dioxin-6-ylmethyl)-[2-(6-methoxy-[1,5]naphthyridin-4-yl)-4,5,6,7-tetrahydro-2H-indazol-5-yl]-amine]	> 0.125	1 (≈ 2.17 µM)	16 (≈ 34.7 µM)	1.08
COc1ccc2nccc(-n3cc4c(n3)CCC(NCCCc3ccccc3)C4)c2n1 (stereo not drawn) [Example 45, [2-(6-Methoxy-[1,5]naphthyridin-4-yl)-4,5,6,7-tetrahydro-2H-indazol-5-yl]-(3-phenyl-propyl)-amine]	0.25 (≈ 0.605 µM)	< 0.125	128 (≈ 310 µM)	1.93
COc1ccc2nccc(-n3cc4c(n3)CCC(NC/C=C/c3cccnc3)C4)c2n1 (stereo not drawn) [Example 47, [2-(6-Methoxy-[1,5]naphthyridin-4-yl)-4,5,6,7-tetrahydro-2H-indazol-5-yl]-(3-pyridin-3-yl-allyl)-amine]	1 (≈ 2.42 µM)	4 (≈ 9.7 µM)	128 (≈ 310 µM)	4.85
COc1ccc2nccc(-n3cc4c(n3)CCC(NCCCc3ccc(Cl)c(Cl)c3)C4)c2n1 (stereo not drawn) [Example 48, [3-(3,4-Dichloro-phenyl)-propyl]-[2-(6-methoxy-[1,5]naphthyridin-4-yl)-4,5,6,7-tetrahydro-2H-indazol-5-yl]-amine]	0.25 (≈ 0.518 µM)	1 (≈ 2.07 µM)	32 (≈ 66.3 µM)	> 66.3
COc1ccc2nccc(-n3cc4c(n3)CCC(NCCCc3ccc(C)cc3)C4)c2n1 (stereo not drawn) [Example 49, [2-(6-Methoxy-[1,5]naphthyridin-4-yl)-4,5,6,7-tetrahydro-2H-indazol-5-yl]-(3-p-tolyl-propyl)-amine]	< 0.125	0.5 (≈ 1.17 µM)	128 (≈ 299 µM)	7.02
COc1ccc2nccc(-n3cc4c(n3)CCC(NC/C=C/c3ccc(F)cc3)C4)c2c1 (stereo not drawn) [Example 57, [3-(4-Fluoro-phenyl)-allyl]-[2-(6-methoxy-quinolin-4-yl)-4,5,6,7-tetrahydro-2H-indazol-5-yl]-amine]	1 (≈ 2.33 µM)	2 (≈ 4.67 µM)	64 (≈ 149 µM)	4.67
COc1ccc2nccc(-n3cc4c(n3)CCC(NCC(=O)Nc3ccc(C)cc3)C4)c2n1 (stereo not drawn) [Example 60, 2-[2-(6-Methoxy-[1,5]naphthyridin-4-yl)-4,5,6,7-tetrahydro-2H-indazol-5-ylamino]-N-p-tolyl-acetamide]	1 (≈ 2.26 µM)	8 (≈ 18.1 µM)	> 128	> 36.2
